Source: US8969325B2, “TRPV1 antagonists” (AbbVie Inc., priority 2011, dated 2015)
pIC50: −log10 of the molar value.

Experiments:
human TRPV1 [1] = biological target: T1, human TRPV1 (Homo sapiens (Human), UniProt Q8NER1); test: Capsaicin Activation Assay (intracellular Ca2+, FLIPR); format: cell-based; conditions: recombinant HEK293 cells expressing hTRPV1, 50 nM capsaicin
Outline: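 Stably transfected HEK293 cells expressing human TRPV1 cDNA, plated the day before in poly-D-lysine plates. Compounds serially diluted from 10 mM DMSO stocks; intracellular Ca2+ fluorescence read on FLIPR at 1 to 5 second intervals.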

human TRPV1 [2] = biological target: T1, human TRPV1; test: Acid Activation Assay (pH 5.0, intracellular Ca2+, FLIPR); format: cell-based; conditions: percentage of the maximal pH 5.0-induced response remaining; recombinant HEK293 hTRPV1 cells; maximum concentration tested 37.5 μM
Outline: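 HEK293 cells stably expressing recombinant hTRPV1, loaded with Calcium-4 dye 90-120 min at 25° C. Compounds added over a 12-point half-log range (top 37.5 μM), then pH 5.0 DPBS/MES challenge after 3 min; FLIPR peak fluorescence over baseline given as % of maximal pH 5.0 response.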

T1 sequence (Q8NER1 whole entry): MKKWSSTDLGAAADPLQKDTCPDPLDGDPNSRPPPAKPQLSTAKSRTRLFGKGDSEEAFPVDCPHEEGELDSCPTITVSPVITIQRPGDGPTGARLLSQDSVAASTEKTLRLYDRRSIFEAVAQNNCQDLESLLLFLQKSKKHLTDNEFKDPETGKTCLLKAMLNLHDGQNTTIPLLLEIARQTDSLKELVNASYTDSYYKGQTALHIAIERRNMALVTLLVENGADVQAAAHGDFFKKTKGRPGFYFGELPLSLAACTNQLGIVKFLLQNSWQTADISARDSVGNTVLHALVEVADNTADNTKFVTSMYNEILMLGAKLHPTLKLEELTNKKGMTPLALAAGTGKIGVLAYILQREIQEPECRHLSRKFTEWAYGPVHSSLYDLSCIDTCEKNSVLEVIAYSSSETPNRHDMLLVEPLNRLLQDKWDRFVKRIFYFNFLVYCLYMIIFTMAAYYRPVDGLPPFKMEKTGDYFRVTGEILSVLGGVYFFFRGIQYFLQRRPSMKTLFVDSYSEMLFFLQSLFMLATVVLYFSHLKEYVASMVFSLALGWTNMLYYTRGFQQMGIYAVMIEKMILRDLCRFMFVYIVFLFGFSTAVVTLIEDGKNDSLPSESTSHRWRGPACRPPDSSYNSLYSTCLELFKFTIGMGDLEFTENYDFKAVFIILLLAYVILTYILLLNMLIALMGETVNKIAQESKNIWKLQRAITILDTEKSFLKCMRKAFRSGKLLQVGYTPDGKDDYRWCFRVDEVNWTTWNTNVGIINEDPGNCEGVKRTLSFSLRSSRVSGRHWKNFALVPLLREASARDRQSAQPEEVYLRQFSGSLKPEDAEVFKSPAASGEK

| pIC50 (human TRPV1 [1]) | human TRPV1 H^+ (max % remain) (human TRPV1 [2]) [%] | Molecule |
| --- | --- | --- |
| 7.26 | 27 | CN1C(=O)CCc2ccc(NC(=O)N[C@@H]3CCc4cc(F)ccc43)cc21 [Example 285, 1-[(1R)-5-fluoro-2,3-dihydro-1H-inden-1-yl]-3-(1-methyl-2-oxo-1,2,3,4-tetrahydroquinolin-7-yl)urea] |
| 6.64 | 68 | CN1C(=O)CCc2ccc(NC(=O)N[C@@H]3C[C@@](C)(CF)Oc4cc(C(F)(F)F)ccc43)cc21 [Example 289, 1-[(2S,4R)-2-(fluoromethyl)-2-methyl-7-(trifluoromethyl)-3,4-dihydro-2H-chromen-4-yl]-3-(1-methyl-2-oxo-1,2,3,4-tetrahydroquinolin-7-yl)urea] |
| 6.82 | 52 | COCC1(COC)C[C@@H](NC(=O)Nc2ccc3c(c2)NC(=O)CC3)c2cc(F)ccc2O1 [Example 237, 1-[(4R)-6-fluoro-2,2-bis(methoxymethyl)-3,4-dihydro-2H-chromen-4-yl]-3-(2-oxo-1,2,3,4-tetrahydroquinolin-7-yl)urea] |
| 6.21 | 2 | CC1(C)C[C@@H](NC(=O)Nc2ccc3c(c2)NC(=O)C(N2CCCOCC2)C3)c2ccc(F)cc2O1 (stereo partly drawn) [Example 303, 1-[(4R)-7-fluoro-2,2-dimethyl-3,4-dihydro-2H-chromen-4-yl]-3-[3-(1,4-oxazepan-4-yl)-2-oxo-1,2,3,4-tetrahydroquinolin-7-yl]urea] |
| 6.70 | 36 | CC1(C)C[C@@H](NC(=O)Nc2ccc3c(c2)NC(=O)N(CCO)C3)c2ccc(F)c(Cl)c2O1 [Example 312, 1-[(4R)-8-chloro-7-fluoro-2,2-dimethyl-3,4-dihydro-2H-chromen-4-yl]-3-[3-(2-hydroxyethyl)-2-oxo-1,2,3,4-tetrahydroquinazolin-7-yl]urea] |
| 6.08 | 18 | O=C(Nc1ccc2c(c1)NC(=O)N(CCO)C2)N[C@@H]1CC(CF)(CF)Oc2c(F)cccc21 [Example 315, 1-[(4R)-8-fluoro-2,2-bis(fluoromethyl)-3,4-dihydro-2H-chromen-4-yl]-3-[3-(2-hydroxyethyl)-2-oxo-1,2,3,4-tetrahydroquinazolin-7-yl]urea] |
| 7.68 | 83 | CC1(C)C[C@@H](NC(=O)Nc2ccc3c(c2)NC(=O)CO3)c2ccc(Cl)c(F)c2O1 [Example 325, 1-[(4R)-7-chloro-8-fluoro-2,2-dimethyl-3,4-dihydro-2H-chromen-4-yl]-3-(3-oxo-3,4-dihydro-2H-1,4-benzoxazin-6-yl)urea] |
| 6.18 | 53 | CN1C(=O)CCc2ccc(NC(=O)N[C@@H]3CC(C)(C)Oc4cc(C(F)(F)F)ccc43)cc21 [Example 265, 1-[(4R)-2,2-dimethyl-7-(trifluoromethyl)-3,4-dihydro-2H-chromen-4-yl]-3-(1-methyl-2-oxo-1,2,3,4-tetrahydroquinolin-7-yl)urea] |
| 6.70 | 36 | O=C(Nc1ccc2c(c1)NC(=O)C(N1CCCOCC1)C2)N[C@@H]1CC(CF)(CF)Oc2cc(Cl)ccc21 (stereo partly drawn) [Example 302, 1-[(4R)-7-chloro-2,2-bis(fluoromethyl)-3,4-dihydro-2H-chromen-4-yl]-3-[3-(1,4-oxazepan-4-yl)-2-oxo-1,2,3,4-tetrahydroquinolin-7-yl]urea] |
| 6.36 | 31 | COCCN(C)C1Cc2ccc(NC(=O)N[C@@H]3CC(CF)(CF)Oc4cc(Cl)ccc43)cc2NC1=O (stereo partly drawn) [Example 306, 1-[(4R)-7-chloro-2,2-bis(fluoromethyl)-3,4-dihydro-2H-chromen-4-yl]-3-{3-[(2-methoxyethyl)(methyl)amino]-2-oxo-1,2,3,4-tetrahydroquinolin-7-yl}urea] |
| 7.28 | 23 | O=C1CCc2ccc(NC(=O)N[C@@H]3CC(CF)(CF)Oc4cc(F)ccc43)cc2N1 [Example 250, 1-[(4R)-7-fluoro-2,2-bis(fluoromethyl)-3,4-dihydro-2H-chromen-4-yl]-3-(2-oxo-1,2,3,4-tetrahydroquinolin-7-yl)urea] |
| 6.41 | 89 | CN1C(=O)CCc2ccc(NC(=O)N[C@@H]3CC(C)(C)Oc4c3cccc4C(F)(F)F)cc21 [Example 256, 1-[(4R)-2,2-dimethyl-8-(trifluoromethyl)-3,4-dihydro-2H-chromen-4-yl]-3-(1-methyl-2-oxo-1,2,3,4-tetrahydroquinolin-7-yl)urea] |
| 7.11 | 68 | CN1C(=O)CCc2ccc(NC(=O)N[C@@H]3CCOc4cc(OC(F)(F)F)ccc43)cc21 [Example 278, 1-(1-methyl-2-oxo-1,2,3,4-tetrahydroquinolin-7-yl)-3-[(4R)-7-(trifluoromethoxy)-3,4-dihydro-2H-chromen-4-yl]urea] |
| 6.89 | 12 | CCC1(CC)C[C@@H](NC(=O)Nc2ccc3c(c2)NC(=O)CC3)c2ccc(Cl)cc2O1 [Example 225, 1-[(4R)-7-chloro-2,2-diethyl-3,4-dihydro-2H-chromen-4-yl]-3-(2-oxo-1,2,3,4-tetrahydroquinolin-7-yl)urea] |
| 5.89 | 37 | CC1(C)C[C@@H](NC(=O)Nc2ccc3c(c2)NC(=O)N(CCO)C3)c2cccc(C(F)(F)F)c2O1 [Example 307, 1-[(4R)-2,2-dimethyl-8-(trifluoromethyl)-3,4-dihydro-2H-chromen-4-yl]-3-[3-(2-hydroxyethyl)-2-oxo-1,2,3,4-tetrahydroquinazolin-7-yl]urea] |

Continued, molecule first:

| Molecule | pIC50 (human TRPV1 [1]) | human TRPV1 H^+ (max % remain) (human TRPV1 [2]) [%] |
| --- | --- | --- |
| CN1C(=O)NCc2c(NC(=O)N[C@@H]3C[C@](C)(C(F)F)Oc4cc(Cl)ccc43)cccc21 [Example 10, 1-[(2R,4R)-7-chloro-2-(difluoromethyl)-2-methyl-3,4-dihydro-2H-chromen-4-yl]-3-(1-methyl-2-oxo-1,2,3,4-tetrahydroquinazolin-5-yl)urea] | 7.77 | 19 |
| CN1C(=O)NCc2c(NC(=O)N[C@@H]3CC(CF)(CF)Oc4cc(OC(F)(F)F)ccc43)cccc21 [Example 149, 1-[(4R)-2,2-bis(fluoromethyl)-7-(trifluoromethoxy)-3,4-dihydro-2H-chromen-4-yl]-3-(1-methyl-2-oxo-1,2,3,4-tetrahydroquinazolin-5-yl)urea] | 6.92 | 16 |
| CN1Cc2ccc(NC(=O)N[C@@H]3CC(CF)(CF)Oc4ccccc43)cc2NC1=O [Example 197, 1-[(4R)-2,2-bis(fluoromethyl)-3,4-dihydro-2H-chromen-4-yl]-3-(3-methyl-2-oxo-1,2,3,4-tetrahydroquinazolin-7-yl)urea] | 5.96 | 57 |
| CCC1(CC)C[C@@H](NC(=O)Nc2ccc3c(c2)NC(=O)CO3)c2ccc(OC(F)(F)F)cc2O1 [Example 111, 1-[(4R)-2,2-diethyl-7-(trifluoromethoxy)-3,4-dihydro-2H-chromen-4-yl]-3-(3-oxo-3,4-dihydro-2H-1,4-benzoxazin-6-yl)urea] | 6.72 | 71 |
| CC1(C)C[C@H](NC(=O)Nc2ccc3c(c2)NC(=O)CO3)c2cc(F)ccc2O1 [Example 123, 1-[(4S)-6-fluoro-2,2-dimethyl-3,4-dihydro-2H-chromen-4-yl]-3-(3-oxo-3,4-dihydro-2H-1,4-benzoxazin-6-yl)urea] | < 4.42 | 94 |
| 1-[(2R,4R)-7-chloro-2-(difluoromethyl)-2-methyl-3,4-dihydro-2H-chromen-4-yl]-3-(2-oxo-1,2,3,4-tetrahydroquinolin-7-yl)urea [Example 30] | 8.40 | 31 |
| CN1C(=O)NCc2c(NC(=O)N[C@@H]3CCOc4cc(C(F)(F)F)ccc43)cccc21 [Example 160, 1-(1-methyl-2-oxo-1,2,3,4-tetrahydroquinazolin-5-yl)-3-[(4R)-7-(trifluoromethyl)-3,4-dihydro-2H-chromen-4-yl]urea] | 7.38 | 23 |
| CC1(C)C[C@@H](NC(=O)Nc2ccc3c(c2)NC(=O)N(CCO)C3)c2cc(F)ccc2O1 [Example 51, 1-[(4R)-6-fluoro-2,2-dimethyl-3,4-dihydro-2H-chromen-4-yl]-3-[3-(2-hydroxyethyl)-2-oxo-1,2,3,4-tetrahydroquinazolin-7-yl]urea] | 6.48 | 10 |
| O=C(Nc1ccc2c(c1)NC(=O)N(CCO)C2)N[C@@H]1CCc2cc(F)ccc21 [Example 55, 1-[(1R)-5-fluoro-2,3-dihydro-1H-inden-1-yl]-3-[3-(2-hydroxyethyl)-2-oxo-1,2,3,4-tetrahydroquinazolin-7-yl]urea] | 5.14 | 36 |
| CN1Cc2ccc(NC(=O)N[C@@H]3CC(CF)(CF)Oc4cc(OC(F)(F)F)ccc43)cc2NC1=O [Example 183, 1-[(4R)-2,2-bis(fluoromethyl)-7-(trifluoromethoxy)-3,4-dihydro-2H-chromen-4-yl]-3-(3-methyl-2-oxo-1,2,3,4-tetrahydroquinazolin-7-yl)urea] | 6.92 | 42 |
| CN1Cc2ccc(NC(=O)N[C@H]3CC(C)(C)Oc4ccc(F)cc43)cc2NC1=O [Example 204, 1-[(4S)-6-fluoro-2,2-dimethyl-3,4-dihydro-2H-chromen-4-yl]-3-(3-methyl-2-oxo-1,2,3,4-tetrahydroquinazolin-7-yl)urea] | 5.80 | 55 |
| C[C@@]1(C(F)F)C[C@@H](NC(=O)Nc2ccc3c(c2)NC(=O)CC3)c2ccc(Cl)cc2O1 [Example 212, 1-[(2S,4R)-7-chloro-2-(difluoromethyl)-2-methyl-3,4-dihydro-2H-chromen-4-yl]-3-(2-oxo-1,2,3,4-tetrahydroquinolin-7-yl)urea] | 7.21 | 34 |
